From US10758522B2, “Small molecule analogs of the nemo binding peptide” (THE SCRIPPS RESEARCH INSTITUTE, priority 2015, dated 2020)
“Also recorded” adds a separate entry of the source.

Key:
IL-6 = IL-6 ELISA in LPS-stimulated Raw 264.7 cells; format: cell-based, mouse; conditions: Raw 264.7, 1 ug/ml LPS, supernatant at 24 hr
Description: To confirm the qRT-PCR result, LPS-mediated IL-6 production was analyzed in Raw 264.7 cells by ELISA. […] Moreover, SR11481 appears to work more efficiently at a lower concentration around 25 μM. Taken together, four lead compounds were identified through seven rounds of optimization and modification.
Enzyme-Linked Immunosorbent Assay (ELISA). Raw264.7 cells were grown in a 96-well plate and pretreated with vehicle, IKKi VII (2 uM) and small molecules (at indicated concentration) for 1 hr, followed by the stimulation with 1 ug/ml of LPS. Supernatant was collected 24 hr later for ELISA analysis. IL-6 concentration was measured using a mouse IL-6 ELISA kit (BD) according to the manufacturer's instructions.

[1] = Pharmacokinetics study after ip injection; format: in vivo; conditions: mice, 10 mg/kg ip, 2 hr
Description: To determine the stability of the NBD mimetics in vivo, the pharmacokinetics of the compounds was determined in serum following ip injection.
The pharmacokinetic profiles of the NBD mimetics were determined in male C57BL/6J mice (n=3). The drugs were formulated in 10:10:80 of DMSO:Tween 80:water and were dosed by intraperitoneal injection at a final dose of 10 mg/kg. Blood, brain, muscle, spleen, and liver were collected 2 hr post-treatment and were analyzed by mass spectrometry by following the protocol described in ref. 215 (42).

mdx mice = experiment: Chronic treatment of mdx mice (Duchenne muscular dystrophy model); format: in vivo, mouse; conditions: for tibialis anterior muscle pathology (H&E): SR compounds 30 mg/kg, 8K-NBD 10 mg/kg
Text: Mdx mice develop normally at birth, and then undergo a massive myonecrosis starting at three weeks. Treatment of mdx mice with IKK/NF-kB inhibitors effectively reduces inflammation, block necrosis and increase muscle regeneration. Mdx mice were chronically treated with vehicle, SR12343, SR12460 or 8K-NBD starting from day 21, 3 times/week for 4 weeks. […] To determine if SR12343 and SR12460 improve muscle pathology, tibialis anterior (TA) muscle was stained with hematoxylin and eosin (H&E) to assess inflammatory infiltration, necrosis, central nucleation and fibrosis. […] Fiber size in centrally nucleated and non-centrally nucleated myofibers was also smaller in mice treated with SR12343 and 8K-NBD, indicating active reconstruction of myofiber during the regenerative phase.
To determine muscle strength post-treatment, grip strength test on forelimbs was performed 2 weeks and 4 weeks post-treatment.
HEK293 cells were grown in Dulbecco's Modification of Eagles Medium (with 4.5 g/L glucose and L-glutamine), supplemented with 10% fetal bovine serum, penicillin and streptomycin. Raw264.7 cells were cultured in RPMI-1640 media containing 10% heat-inactivated fetal bovine serum, penicillin and streptomycin. C57BL/10ScSn-Dmd^mdx/J and female C57BL/6 mice were purchased from the Jackson Laboratory. Mice were housed in the animal facilities of Scripps Fla. under constant temperature and humidity. Animal protocols used in this study were approved by Scripps Fla. Institutional Animal Care and Use Committees. Three week-old sex-matched mdx mice were dosed with SR12343 (30 mg/kg), […] (30 mg/kg), 8K-NBD peptide (10 mg/kg) or vehicle by intraperitoneal (i.p.) injection 3 times per week for 4 weeks. Mice were sacrificed at 7 weeks of age by carbon dioxide inhalation and tibialis anterior was collected for histological analysis.
Seven week-old treated or untreated mdx mice were measured for forelimb grip strength using a digital grip strength meter paired with a metal grid (Bioseb). Mice were allowed to grip the metal grid tightly and readings were obtained by gently pulling the tail backward until release. Five sequential measurements were performed and the average force was calculated.
Tissues fixed in 10% neutral buffered formalin (NBF) overnight were imbedded in paraffin. Tissue was sectioned at […] using a microtome. H&E staining was conducted following a standard protocol (REF).

IKKβ-NEMO interaction = experiment: Immunoprecipitation of NEMO and IKKβ immunoblot in Raw 264.7 macrophages and HEK293 cells; format: cell-based; conditions: Raw 264.7 macrophages / HEK293; mimetics 100 μM, 8K-NBD 400 μM
Description: The NBD mimetics reduce the interaction between IKKg (NEMO) and IKKß. The indicated concentrations of the drugs were added to HEK 293 or Raw 264.7 cells and cell extracts prepared 30 minutes later. Following immunoprecipitation (IP) of NEMO, the Western was probed for IKKß.
After treatment with the mimetics or NBD peptide, NEMO was immunoprecipitated by an anti-NEMO antibody and IKKβ was immunoblotted to determine the binding of IKKβ to NEMO.
HEK293 or Raw264.7 cells were seeded at 1×10^6 cells/well in 6-well plates and treated with vehicle, small molecule or NBD peptide for indicated time. Cells were lysed in NP-40 lysis buffer supplemented with 1× protease inhibitor cocktails (sigma). Protein was immunoprecipitated by incubating 150 μg of lysate with 1 μg of anti-NEMO antibody (Santa Cruz) on a rotating shaker at 4° C. for 4 hrs, followed by incubation with 20 ul of Protein A agarose beads (ThermoFisher) for 1 hr. Beads were washed in NP40 buffer 3 times and PBS once. Protein was then denatured in SDS-sample buffer and resolved by MINI-PROTEAN TGX 4-15% SDS-PAGE. Anti-IKKβ (1:1000 CST) was used to assess binding of IKKβ to NEMO and anti-NEMO (1:1000 CST) or IgG were used to as a loading control.

Row | Compound | LPS-mediated mIL-6 production (ELISA) (IL-6) | stability in serum after ip injection [1] | expression of eMyHC and Pax 7 in TA muscle (qRT-PCR) (mdx mice; ip 3 times/week for 4 weeks) | tibialis anterior muscle pathology (H&E) (mdx mice; ip 3 times/week for 4 weeks) | disruption of IKKβ-NEMO interaction (NEMO IP, IKKβ blot) (IKKβ-NEMO interaction) | stability in serum after ip injection ([1]; 10 mg/kg) | forelimb grip strength (mdx mice; 2 weeks post-treatment) | fiber size in centrally nucleated and non-centrally nucleated myofibers (mdx mice; ip 3 times/week for 4 weeks) | therapeutic benefit of chronic treatment of mdx mice (mdx mice; chronic treatment with the ZINC compounds)
1 | O=C(CNCCc1cc(F)cc(F)c1)Nc1ccc(Cl)cn1 [SR12460, N-(5-chloropyridin-2-yl)-2-((3,5-difluorophenethyl)amino)acetamide] | decreasing by half at 25 μM | significant stability 2 hr after injection | increased eMyHC expression, but to a lower extent compared to SR12343 | partly improved muscle pathology | disruption of the association between NEMO and IKK-β | – | – | – | –
2 | O=C(CNc1ccc(Cl)cn1)NCCc1cccc(Br)c1 [SR12343, N-(3-bromophenethyl)-2-((5-chloropyridin-2-yl)amino)acetamide] | suppressed mIL-6 production in a dose-dependent manner | – | increasing expression of eMyHC as well as Pax 7 | most significant pathological improvement | strongest activity; also recorded: disruption of the association between NEMO and IKK-β | moderate stability; also recorded: less stable compared to SR12460 | significantly improved forelimb strength after 2 weeks of treatment | smaller | –
3 | Nc1ncccc1C(=O)OCC(=O)Nc1ccc(Cl)cc1F [NBDA-1, 2-((4-chloro-2-fluorophenyl)amino)-2-oxoethyl 2-aminonicotinate] | – | – | – | – | – | – | – | – | showed no therapeutic benefit
